From patent US20240190838A1, “LZK-TARGETING DEGRADERS AND METHODS OF USE” (The U.S.A., as represented by the Secretary, Department of …, priority 2020, published 2024)

test: Parallel artificial membrane permeability assay (PAMPA); assay type: in vitro ADME; conditions: Table 7

Structure (SMILES)	Ratio of mean permeability (×10^4 cm/s) related to low permeability control (atenolol)
Cc1ncsc1-c1ccc([C@H](C)NC(=O)[C@@H]2C[C@@H](O)CN2C(=O)[C@@H](NC(=O)[C@H](CCC(=O)N2CCC(c3cc(Nc4cc(C#N)ccn4)nc(N4CCC(F)(F)C4)c3)CC2)NC(=O)C(N)CCCNC(=N)N)C(C)(C)C)cc1 (stereo partly shown) [Compound 29]	6.74
Cc1ncsc1-c1ccc([C@H](C)NC(=O)[C@@H]2C[C@@H](O)CN2C(=O)[C@@H](NCc2cccc(CN3CCC(c4cc(Nc5cc(C#N)ccn5)nc(N5CCC(F)(F)C5)c4)CC3)n2)C(C)(C)C)cc1 [Compound 9]	−0.46
Cc1ncsc1-c1ccc([C@H](C)NC(=O)[C@@H]2C[C@@H](O)CN2C(=O)[C@@H](NC(=O)CCCCC(=O)N2CCC(c3cc(Nc4cc(C#N)ccn4)nc(N4CCC(F)(F)C4)c3)CC2)C(C)(C)C)cc1 [Compound 12]	0.61
Cc1ncsc1-c1ccc([C@H](C)NC(=O)[C@@H]2C[C@@H](O)CN2C(=O)[C@@H](NC(=O)c2ccc(C(=O)N3CCC(c4cc(Nc5cc(C#N)ccn5)nc(N5CCC(F)(F)C5)c4)CC3)cc2)C(C)(C)C)cc1 [Compound 15]	−0.14
Cc1ncsc1-c1ccc([C@H](C)NC(=O)[C@@H]2C[C@@H](O)CN2C(=O)[C@@H](NC(=O)CCC(=O)N2CCC(c3cc(Nc4cc(C#N)ccn4)nc(N4CCC(F)(F)C4)c3)CC2)C(C)(C)C)cc1 [Compound 14]	−0.51
Cc1ncsc1-c1ccc([C@H](C)NC(=O)[C@@H]2C[C@@H](O)CN2C(=O)[C@@H](NC(=O)c2cc(C(=O)N3CCC(c4cc(Nc5cc(C#N)ccn5)nc(N5CCC(F)(F)C5)c4)CC3)ncn2)C(C)(C)C)cc1 [Compound 20]	−0.01
Cc1ncsc1-c1ccc([C@H](C)NC(=O)[C@@H]2C[C@@H](O)CN2C(=O)[C@@H](NCc2ccc(C(=O)N3CCC(c4cc(Nc5cc(C#N)ccn5)nc(N5CCC(F)(F)C5)c4)CC3)cc2)C(C)(C)C)cc1 [Compound 13]	1.31

The next lines start with the values.

Ratio of mean permeability (×10^4 cm/s) related to low permeability control (atenolol)	Structure (SMILES)
−0.11	Cc1ncsc1-c1ccc([C@H](C)NC(=O)[C@@H]2C[C@@H](O)CN2C(=O)[C@@H](NC(=O)c2ccc(C(=O)N3CCC(c4cc(Nc5cc(C#N)ccn5)nc(N5CCC(F)(F)C5)c4)CC3)nn2)C(C)(C)C)cc1 [Compound 21]
1.47	Cc1ncsc1-c1ccc([C@H](C)NC(=O)[C@@H]2C[C@@H](O)CN2C(=O)[C@@H](NC(=O)[C@H]2CC[C@H]2C(=O)N2CCC(c3cc(Nc4cc(C#N)ccn4)nc(N4CCC(F)(F)C4)c3)CC2)C(C)(C)C)cc1 (single isomer, unassigned) [Compound 26]
−1.86	Cc1ncsc1-c1ccc([C@H](C)NC(=O)[C@@H]2C[C@@H](O)CN2C(=O)[C@@H](NCC(=O)N2CCC(c3cc(Nc4cc(C#N)ccn4)nc(N4CCC(F)(F)C4)c3)CC2)C(C)(C)C)cc1 [Compound 28]
6.74	Cc1ncsc1-c1ccc([C@H](C)NC(=O)[C@@H]2C[C@@H](O)CN2C(=O)[C@@H](NC(=O)[C@H]2C[C@H](C(=O)N3CCC(c4cc(Nc5cc(C#N)ccn5)nc(N5CCC(F)(F)C5)c4)CC3)C2)C(C)(C)C)cc1 [Compound 24]
0.01	Cc1ncsc1-c1ccc([C@H](C)NC(=O)[C@@H]2C[C@@H](O)CN2C(=O)[C@@H](NC(=O)N2CCC(c3cc(Nc4cc(C#N)ccn4)nc(N4CCC(F)(F)C4)c3)CC2)C(C)(C)C)cc1 [Compound 27]
0.43	Cc1ncsc1-c1ccc([C@H](C)NC(=O)[C@@H]2C[C@@H](O)CN2C(=O)[C@@H](NC(=O)[C@H]2CC[C@@H]2C(=O)N2CCC(c3cc(Nc4cc(C#N)ccn4)nc(N4CCC(F)(F)C4)c3)CC2)C(C)(C)C)cc1 (single isomer, unassigned) [Compound 25]
